We go through two compounds from patent US20100189813A1, “Cidal formulations and methods of use” (priority 2006, published 2010).

The test system of one assay is E. Coli bacteria. As to the kind of experiment: Incubation for 10 or 60 minutes, then plating on agar to estimate survival, bacteria. As to conditions: detergent alone. Type of assay: cell-based. The procedure: Three different types of experiments were conducted in order to assess the efficacy of an inventive solution on E. Coli bacteria and fungi.
(§1) 1. The Unformulated composition containing 5 weight percent of copper sulphate in an inert carrier was added directly to growth media, namely, Agar, in order to evaluate it's efficacy as a disinfectant. 2. The same solution was added to bacteria and its growth was monitored by optical density readings as a function of time. 3. The same solution alone or in combination with a detergent was added to bacteria or fungi and incubated for 10 minutes or 60 minutes and the incubation mix was plated on to agar growth media in order to estimate survival.
c. Bacteria with the Unformulated composition was incubated for 10 minutes or 60 minutes before plating them. […] Because of the closeness of the data points, the inventors herein would point out that the top line is the control, the next set of lines lower are constituted of 0.1, 0.2, 0.3, 0.4, 0.5 of ET and 1 ml Matrix, while the bottom set of lines are constituted of 2 ml Matrix, 3 ml Matrix, 3 ml Matrix, 4 ml Matrix, and 5 ml of Matrix.
4. The effect of adding detergents, that is, sodium dodecyl sulfate to the Unformulated composition.
The detergent alone allowed growth up to a concentration of 0.2%. […]

For another assay, the system named is fungi. As to the kind of experiment: Agar growth media plates left open to the atmosphere for 6 hours (disinfectant efficacy), fungi. Type of assay: cell-based. As to conditions: copper sulphate at 5%; plates open 6 hours. On the procedure:
as §1
(§2) a. The Unformulated composition at different concentrations was added to live bacterial agar media and the agar plates were exposed to the atmosphere by keeping the Petri plates open to the atmosphere for 6 hours. By doing this it was expected to allow aerial bacteria to grow in the plates.
(§3) Control plates without the Unformulated composition contained confluent colonies of bacteria (infinite) and fungi.

The next assay deals with aerial bacteria. The assay can be described thus: Agar growth media plates left open to the atmosphere for 6 hours (disinfectant efficacy), bacteria. The format is cell-based. As to conditions: copper sulphate at 5%; plates open 6 hours. On the procedure:
as §1, §2, §3

A further assay has as its system Anopheles mosquitoes. The assay can be described thus: Anopheles mosquito larvae survivorship on exposure to copper. Type of assay: in vivo. An excerpt:
A solution in water of copper sulphate pentahydrate at 5 weight percent was used to treat Anopheles mosquitoes. The mosquitoes were wild caught and they were not separated by larval stage so there is some variability in the response to the test. The data is based upon 1000 larvae per treatment. Amounts of copper were used at 0.37 ppm, 0.88 ppm, 1.47 ppm, and 8.4 ppm. […] The Y-axis is the percentage of survivorship and the X-axis is the number of days of exposure.
The tests were repeated wherein a copper compound in inert carrier was treated with a detergent as an additive to determine if the additive increased the efficacy of the copper. […] The first control is FIG. 2, Stage 1 larvae, the duplicate control, Stage 1 larvae, is FIG. 3 wherein, in both Figures, the Y-axis is the percentage of survivorship and the X-axis is the number of days of exposure.
Kathon was added at 0.02 weight percent. […] The Y-axis is the percentage of survivorship and the X-axis is the number of days of exposure.
The copper was used at the 0.25 ppm level. […] The Y-axis is the percentage of survivorship and the X-axis is the number of days of exposure.

`CCCCCCCCCCCCOS(=O)(=O)[O-].[Na+]` [sodium dodecyl sulfate]: the “concentration at which bacterial growth was still allowed” value with E. Coli bacteria is reported as no more than 0.2%.

Take `O.O.O.O.O.O=S(=O)([O-])[O-].[Cu+2]` [copper sulphate pentahydrate]: the “fungal growth on plates” value in the assay with fungi is on record as “allowed no fungal growth”. Further, the “bacterial growth on plates” value with aerial bacteria is listed as “allowed bacterial growth”. For the same compound, the survivorship in the assay on Anopheles mosquitoes (0.37 ppm copper, wild caught larvae not separated by larval stage, 1000 larvae per treatment) is roughly 100%. The compound also had a no-effect dose with Anopheles mosquitoes (copper, first part of the experiment, no detergent) of 0.37 ppm. For the same compound, the death of larvae entry in the assay with Anopheles mosquitoes (more than 0.8 ppm copper (0.88, 1.47, 8.4 ppm tested), by day 3, wild caught larvae) is given as “died by day 3”.
